Experimental data from patent US20250034116A1, “1,4-DIHETEROCYCLIC SUBSTITUTED AROMATIC RING OR AROMATIC HETEROCYCLIC COMPOUND AND USE THEREOF” (BeBetter Med Inc., priority 2022, published 2025).

Tests used:
[1] = system: CYP enzymes in human liver microsomes (HLM); experiment: Inhibition of 20-HETE production in human liver microsomes (HLM); format: biochemical
In short: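 Liver microsomes (human or mouse) or recombinant CYP4F2 or CYP4A11 in potassium phosphate buffer mixed with compound, then with 400 μM substrate solution (stock). After 10 min preincubation at 37 °C, reaction started with 6 mM NADPH solution (stock) and run 25 min at 37 °C. 20-HETE formation quantified by LC-MS/MS; IC50 from a four-parameter Hill fit, with percent inhibition also reported at 1000, 500 or 100 nM.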

[2] = system: CYP enzymes in rat liver microsomes (RLM); experiment: Inhibition of 20-HETE production in rat liver microsomes (RLM); format: biochemical
In short: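 Test compounds were dissolved in DMSO, diluted in acetonitrile/DMSO (3:1), and 2 μl was mixed with 100 μl potassium phosphate buffer containing rat liver microsomes in a 96-well plate. Duplicate 30 μl aliquots received 15 μl of 400 μM substrate, were preheated at 37° C. for 10 minutes, then started with 15 μl of 6 mM NADPH for 25 minutes. LC-MS/MS measured 20-HETE formation.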

[3] = system: CYP enzymes in mouse liver microsomes (MLM); experiment: Inhibition of 20-HETE production in mouse liver microsomes (MLM); format: biochemical
Experimental: (§1) Experimental principle: The inhibitory activity of 20-HETE production is evaluated by testing the inhibitory effects of the compound on human liver microsomes (HLM), rat liver microsomes (RLM), mouse liver microsomes (MLM), or […] CYP4 subtype enzymes (CYP4F2). This assay employs HLM, RLM, or MLM along with recombinant CYP4F2 (rCYP4F2) and recombinant CYP4A11 (rCYP4A11), which are […] CYP4 subtype enzymes, to detect the effects of the test compound at different concentrations on the metabolic rate of enzyme-specific substrates, to determine the inhibitory effects of the test compound on CYP enzymes in HLM, RLM, or MLM.
(§2) Experimental methods: Dissolve the test compound in DMSO, and subsequently dilute it with an acetonitrile and DMSO mixture (3:1). Add 2 μl of varying concentrations of the test compound and 100 μl of potassium phosphate buffer containing either liver microsomes or recombinant enzymes to a 96-well plate. After mixing well, transfer 30 μl to another well (in duplicate), add 15 μl of 400 μM substrate solution, and mix well again. Preheat at 37° C. for 10 minutes, and then add 15 μl of 6 mM NADPH and incubate at 37° C. for 25 minutes. After 25 minutes, add 160 μl of acetonitrile solution (containing 0.1 μg/ml internal standard) to stop the reaction. Mix well, centrifuge at 3500 g for 15 minutes, and then analyze the supernatant using LC-MS/MS.
(§3) Plot the compound concentration on the x-axis and the inhibition rate on the y-axis to draw the curve. Use GraphPad Prism 5 software to fit the curve and calculate the IC50. The formula is Y=Bottom+(Top−Bottom)/(1+10^((Log IC50−X)×HillSlope)). X represents the logarithmic concentration of the inhibitor, and Y represents the relative enzyme activity at a given inhibitor concentration (relative to the condition without the inhibitor).
(§4) Calculate the inhibition percentages at concentrations of 1000 nM, 500 nM, or 100 nM as well as the half-maximal inhibitory concentration (IC50) of the test compound from the above experiment.

[4] = molecular target: recombinant CYP4F2 (rCYP4F2) (Homo sapiens (Human), UniProt P78329); experiment: Inhibition of 20-HETE production by recombinant CYP4F2; format: biochemical; settings: for inhibition at 0.1 µM: read-out: rCYP4F2 (% inh @ 100 nM)
Sequence of recombinant CYP4F2 (rCYP4F2) (P78329 5-520): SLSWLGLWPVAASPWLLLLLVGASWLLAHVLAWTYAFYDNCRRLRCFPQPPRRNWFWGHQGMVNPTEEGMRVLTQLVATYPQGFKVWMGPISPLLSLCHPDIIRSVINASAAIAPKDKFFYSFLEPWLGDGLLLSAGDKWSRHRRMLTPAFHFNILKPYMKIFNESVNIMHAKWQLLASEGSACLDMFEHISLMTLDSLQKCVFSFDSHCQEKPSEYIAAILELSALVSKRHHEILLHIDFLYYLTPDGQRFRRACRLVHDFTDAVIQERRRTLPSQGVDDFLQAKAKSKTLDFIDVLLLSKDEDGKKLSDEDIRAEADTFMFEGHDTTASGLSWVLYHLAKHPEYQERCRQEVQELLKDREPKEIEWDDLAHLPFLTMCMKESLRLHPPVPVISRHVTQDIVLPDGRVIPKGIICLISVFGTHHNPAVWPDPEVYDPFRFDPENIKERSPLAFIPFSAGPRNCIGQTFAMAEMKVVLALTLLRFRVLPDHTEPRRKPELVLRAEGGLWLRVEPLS
Experimental: as §1, §2, §3, §4

[5] = molecular target: recombinant CYP4A11 (rCYP4A11) (Homo sapiens (Human), UniProt Q02928); experiment: Inhibition of 20-HETE production by recombinant CYP4A11; format: biochemical; settings: for inhibition at 0.1 µM: read-out: rCYP4A11 (% inh @ 100 nM)
Sequence of recombinant CYP4A11 (rCYP4A11) (Q02928 5-519): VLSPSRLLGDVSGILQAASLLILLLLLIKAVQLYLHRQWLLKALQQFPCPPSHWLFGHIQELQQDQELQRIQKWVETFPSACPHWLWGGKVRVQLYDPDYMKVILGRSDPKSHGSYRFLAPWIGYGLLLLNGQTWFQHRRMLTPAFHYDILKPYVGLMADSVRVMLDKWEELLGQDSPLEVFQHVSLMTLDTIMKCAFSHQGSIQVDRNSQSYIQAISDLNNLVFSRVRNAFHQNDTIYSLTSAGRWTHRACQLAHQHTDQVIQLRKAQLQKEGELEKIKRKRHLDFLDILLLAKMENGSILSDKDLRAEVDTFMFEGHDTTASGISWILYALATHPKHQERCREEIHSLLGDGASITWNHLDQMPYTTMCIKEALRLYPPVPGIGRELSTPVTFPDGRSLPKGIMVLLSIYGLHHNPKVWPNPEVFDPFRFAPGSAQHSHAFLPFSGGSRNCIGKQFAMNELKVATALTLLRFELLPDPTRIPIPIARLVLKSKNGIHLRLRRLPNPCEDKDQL
Experimental: as §1, §2, §3, §4

[6] = Pharmacokinetic (PK) experiment, oral administration in rats; format: in vivo, Male SD rats; settings: 20 mg/kg; for AUC(0-inf) / Cmax / Tmax / half-life / AUC(0-t): male, SD, rat, plasma; for AUC(0-t): read-out: AUC0-24
Experimental: Male SD rats, weighing 180-250 grams, were fasted overnight before testing. The test compound was dissolved in 30% sulfobutylether-β-cyclodextrin and administered orally at a dose of 20 mg/kg. Blood was collected from the tail vein at 15 minutes, 30 minutes, and 1, 2, 4, 6, 8, and 24 hours after administration. Approximately 0.3 ml of blood was collected at each time point, placed in a centrifuge tube containing K2-EDTA, and centrifuged (2000 g for 10 minutes at 4° C.) to take the plasma, which was then stored in an ultra-low temperature freezer at −70° C. or below. A 50 μL plasma sample was mixed with 135 μL of acetonitrile (containing 0.5 μg/mL internal standard) and vortexed for protein precipitation. After centrifugation, the supernatant was taken for LC-MS/MS analysis.

Row | Structure (SMILES) | IC50 [1] | HLM (% inh @ 500 nM) [1] | IC50 [2] | RLM (% inh @ 500 nM) [2] | IC50 [3] | IC50 [4] | inhibition at 0.1 µM [4] | IC50 [5] | absorption and blood exposure after oral administration (in words) [6] | AUC(0-inf) [6] | Cmax [6] | Tmax [6] | half-life [6] | AUC(0-t) [6] | inhibition at 0.1 µM [5]
1 | O=C1CCCN1CC1CCN(c2c(F)cc(-c3cn[nH]c3)cc2F)CC1 [Compound 5, 1-((1-(2,6-difluoro-4-(1H-pyrazol-4-yl)phenyl)piperidin-4-yl)methyl)pyrrolidin-2-one] | 28.1 nM | 81.03% | 44.2 nM | 66.71% | 946 nM | 24.9 nM | 71.1% | 39.6 nM | well absorbed and exhibit high blood exposure | 124000 ng·h/mL | 9270 ng/mL | 2.67 h | 487 min | 103000 ng·h/mL | –
2 | O=C1CCCCN1CC1CCN(c2ccc(-c3cn[nH]c3)cc2)CC1 [Compound 25, 1-((1-(4-(1H-pyrazol-4-yl)phenyl)piperidin-4-yl)methyl)piperidin-2-one] | 29.3 nM | 80.65% | 159 nM | 61.49% | 766 nM | – | 56% | – | – | – | – | – | – | – | 30.6%
3 | O=C1CCCCN1CC1CCN(c2ccc(-c3cn[nH]c3)c(F)c2F)CC1 [Compound 26, 1-((1-(2,3-difluoro-4-(1H-pyrazol-4-yl)phenyl)piperidin-4-yl)methyl)piperidin-2-one] | – | 89.67% | 124 nM | 63.62% | 1670 nM | – | 78% | – | well absorbed and exhibit high blood exposure | 40500 ng·h/mL | 7150 ng/mL | 1.67 h | 176 min | 40300 ng·h/mL | 53.9%
4 | O=C1CCCCN1CC1CCN(c2c(F)cc(-c3cn[nH]c3)cc2F)CC1 [Compound 27, 1-((1-(2,6-difluoro-4-(1H-pyrazol-4-yl)phenyl)piperidin-4-yl)methyl)piperidin-2-one] | 26 nM | 88.87% | 23.3 nM | – | 1150 nM | – | 78.4% | – | – | – | – | – | – | – | 52.3%
5 | O=C(Nc1ccc2occc2c1)C1CCN(c2ccc(-c3cn[nH]c3)cc2)CC1 [Compound 62, 1-(4-(1H-pyrazol-4-yl)phenyl)-N-(benzofuran-5-yl)piperidine-4-carboxamide] | 19.6 nM | 85.05% | – | 50.28% | – | – | 79.2% | – | – | – | – | – | – | – | 25.8%
6 | O=C(Nc1ccc2ccccc2c1)C1CCN(c2ccc(-c3cn[nH]c3)cc2)CC1 [Compound 64, 1-(4-(1H-pyrazol-4-yl)phenyl)-N-(naphthalen-2-yl)piperidine-4-carboxamide] | 20 nM | 81.86% | 86.4 nM | – | – | – | 73.8% | – | – | – | – | – | – | – | 40.6%
7 | O=C(C1CCN(c2ccc(-c3cn[nH]c3)cc2)CC1)N1Cc2ccccc2C1 [Compound 66, (1-(4-(1H-pyrazol-4-yl)phenyl)piperidin-4-yl)(isoindolin-2-yl) methanone] | – | 69.53% | – | 64.35% | – | – | 70.5% | – | well absorbed and exhibit high blood exposure | 486000 ng·h/mL | 26800 ng/mL | 3.33 h | 748 min | 364000 ng·h/mL | 9.25%
8 | O=C(C1CCCC1)N1CCC(c2ccc(-c3cn[nH]c3)cc2)CC1 [Compound 70, (4-(4-(1H-pyrazol-4-yl)phenyl)piperidin-1-yl)(cyclopentyl) methanone] | 19.4 nM | 89.89% | 4.9 nM | – | 135 nM | – | 79.2% | – | well absorbed and exhibit high blood exposure | 69000 ng·h/mL | 7320 ng/mL | 3 h | 154 min | 68800 ng·h/mL | 65.5%
9 | O=C(N1CCCC1)N1CCN(c2ccc(-c3cn[nH]c3)c(F)c2F)CC1 [Compound 72, (4-(2,3-difluoro-4-(1H-pyrazol-4-yl)phenyl)piperazin-1-yl)(pyrrolidin-1-yl) methanone] | 19.1 nM | 89.73% | 5.36 nM | – | 1330 nM | – | 70.1% | – | well absorbed and exhibit high blood exposure | 86000 ng·h/mL | 7880 ng/mL | 2.33 h | 151 min | 85800 ng·h/mL | 50.6%
10 | O=C1CCCN1CC1CCN(c2ccc(-c3cn[nH]c3)cc2)C1 (stereo not drawn) [Compound 74, 1-((1-(4-(1H-pyrazol-4-yl)phenyl)pyrrolidin-3-yl)methyl)pyrrolidin-2-one] | – | 72.44% | – | 47.19% | – | – | 52.8% | – | – | – | – | – | – | – | 17.5%
11 | O=C1CCCN1Cc1ccc(C2CCN(c3cn[nH]c3)CC2)cc1 [Reference 83, reference compound] | 51.8 nM | 79.09% | 598 nM | 38.16% | > 10000 nM | – | 54.6% | – | – | 2640 ng·h/mL | 562 ng/mL | 1.5 h | 212 min | 2630 ng·h/mL | 35.6%
